Measured values: patent US20250083204A1, “CUPRIAVIDUS METALLIDURANS CML2, ITS PREPARATION, AND ITS BIOR[…] FOR HEAVY METAL-CONTAMINATED ENVIRONMENT” (priority 2023, published 2025)
Several values for one entry are separate records, joined by “and”; a condition that tells them apart may be missing. Equal values may be shown once.

Assays:
[1] = tested on: Cupriavidus metallidurans CML2; type: cell-based; settings: for MIC: lowest concentration of heavy metal inhibiting growth of CML2
Text: Note that the MIC values refer to the lowest concentration of each heavy metal required to inhibit the growth of Cupriavidus metallidurans CML2.

rice seedling = assay: Rice seedling root and shoot growth; type: in vivo; settings: 14-day cultivation, cadmium alone
Text: FIG. 7A-7C are schematic diagrams illustrating an effect of Cupriavidus metallidurans CML2 inoculation on rice seedling growth and cadmium remediation. FIG. 7A illustrates the effects of Cupriavidus metallidurans CML2 on rice seedling morphology; FIG. 7B illustrates the effects of Cupriavidus metallidurans CML2 on relative lengths of the root and shoot under different conditions. C: control, treated with sterile NB medium; CML2: treated with strain CML2; Cd: treated with Cd^2+; CML2+Cd: treated with both CML2 and Cd^2+; FIG. 7C illustrates the effects of Cupriavidus metallidurans CML2 on cadmium accumulation in rice seedling roots and shoots; data represents means±SEM; different letters (a or b) above the columns indicate significant differences between the three groups using one-way ANOVA at P<0.05; “***” indicates statistically significant differences according to a t-test, P<0.001.
To assess the impact of strain CML2 as a facilitator for plant growth and a cadmium remediation agent, Embodiment 8 conducted an analysis on the relative lengths of rice roots and shoots as well as cadmium concentrations, under different treatments: control, Cupriavidus metallidurans CML2 (CML2), cadmium (Cd), and CML2+Cd (Simultaneous treatment with cadmium and CML2). The control group (C) consisted of rice plants cultured in a sterile nutrient solution.

Row | Compound | tolerance of CML2 to heavy metal [1] | MIC [1] | inhibition of rice root and shoot growth compared to control (rice seedling)
1 | [Cd+2] [Cadmium (Cd^2+), Cadmium] | 13 mM and 2400 mg/L | 13.1 mM | approximately 89%
2 | [Cu+2] [Copper (Cu^2+), Copper] | – | 2.0 mM | –
3 | [Mn+2] [Manganese (Mn^2+), Manganese] | 110 mM | 110 mM | –
4 | [Ni+2] [Nickel (Ni^2+), Nickel] | – | 2.5 mM | –
5 | [Se+4] [Selenium (Se^4+), Selenium] | – | 45 mM | –
6 | [Zn+2] [Zinc (Zn^2+), Zinc] | – | 20 mM | –
7 | Mercury [Mercury (Hg^2+)] | 0.03 mM | 0.03 mM | –
